Experimental data as given in patent US11261152B2, “Inhibitors of the N-terminal domain of the androgen receptor” (The Regents of the University of California, priority 2017, dated 2022).
Counter-ions that a name gives are not always drawn.

What was measured:
[1] = biological target: T1, AR transactivation domain (TAD) (Homo sapiens, UniProt P10275); experiment: AR-TAD fused to GAL4 DNA-binding domain reporter assay; assay type: cell-based
T1 construct: expressed in transfected cells
T1 sequence (P10275 1-559 limits assumed): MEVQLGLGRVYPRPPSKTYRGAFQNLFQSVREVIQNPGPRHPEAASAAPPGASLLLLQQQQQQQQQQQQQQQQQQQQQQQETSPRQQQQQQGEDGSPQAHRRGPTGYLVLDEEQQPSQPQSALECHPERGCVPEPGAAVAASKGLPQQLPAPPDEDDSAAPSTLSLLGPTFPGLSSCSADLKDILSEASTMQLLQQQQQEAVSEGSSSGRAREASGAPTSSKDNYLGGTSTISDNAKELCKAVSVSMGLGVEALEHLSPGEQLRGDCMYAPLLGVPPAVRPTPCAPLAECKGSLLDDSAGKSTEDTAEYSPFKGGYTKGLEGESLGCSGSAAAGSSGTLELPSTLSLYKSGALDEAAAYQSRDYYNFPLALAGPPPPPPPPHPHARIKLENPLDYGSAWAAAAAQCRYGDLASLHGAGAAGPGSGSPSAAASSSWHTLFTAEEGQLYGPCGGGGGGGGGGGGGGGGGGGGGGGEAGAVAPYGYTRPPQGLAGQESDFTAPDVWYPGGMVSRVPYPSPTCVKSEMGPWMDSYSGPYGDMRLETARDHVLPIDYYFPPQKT
From the text: (§1) The inhibitory activity of JN018 was further evaluated in experiments in which the AR transactivation domain (TAD) or the c-Jun or CREB TAD was fused to the heterologous GAL4 DNA-binding domain and thereby drive reporter gene expression governed by the GAL4 response element (FIG. 1).

c-Jun TAD = experiment: JUN-TAD fused to GAL4 DNA-binding domain reporter assay; assay type: cell-based; details: Table 3 grade HIGH/MED/LOW, grades not defined
From the text: as §1

CREB TAD = experiment: CREB-TAD fused to GAL4 DNA-binding domain reporter assay; assay type: cell-based; details: Table 3 grade HIGH/MED/LOW, grades not defined
From the text: as §1

[2] = system: LNCaP-AR castration resistant cell line; experiment: LNCaP-AR castration resistant xenograft in castrated nude mice; assay type: in vivo
Experimental: FIG. 12A. In vivo effects of JN series compounds.
FIG. 12B. In vivo effects of JN series compounds.
Selected compounds were tested in a mouse xenograft model. In this model, the LNCaP-AR castration resistant cell line was grown subcutaneously in the flanks of castrated nude mice. When tumors reached 150-200 mm^3, mice were administered selected JN series compounds, vehicle or positive control by oral gavage once per day for five days per week (Mon-Fri). […].

[3] = system: AR regulated genes (TMPRSS, NDRG), AR^FL, AR-V7; experiment: Expression of AR-regulated genes (Western blot); assay type: cell-based
Experimental: 22Rv1 and CWR22 cells were exposed to JN018 at the indicated concentrations (in μM) for 24 hours before protein extraction for Western blotting.
JN018 was further evaluated to identify a mechanism for its activity in prostate cancer cell lines. It was discovered that JN018 inhibits the expression of AR regulated genes. […] In principle, decreased AR expression can be attributed to several different effects, such as gene transcription, mRNA stability, translation, or protein stability.

[4] = system: AR positive PCa cells (LNCaP, LNCaP-AR, CWR22, 22Rv1, LAPC4); experiment: MTT / CellTiter GLO cell viability, AR positive prostate cancer cells
Experimental: The results are means of quadruplicate expts±s.d. Top panel: CellTiter GLO luminescent bioassay (arbitrary units on vertical axis). Bottom panel: classical MTT assay ([blue/yellow]=[viable/non-viable]).
Experiments were performed in quadruplicate; results are means+/−s.d.
Results were normalized to that of vehicle control. Experiments were performed in quadruplicate; results are means+/−s.d.
Next, the effects of the compounds on growth of prostate cancer cell lines in vitro were evaluated.

[5] = Table 3 grade HIGH/MED/LOW, grades not defined

C=C(CN(C)Cc1ccccc1)C(=O)/C(=C/c1ccc(Cl)cc1)c1ccccc1 [JN018, (E)-4-((Benzyl(methyl)amino)methyl)-1-(4-chlorophenyl)-2-phenylpenta-1,4-dien-3-one hydrochloride]
AR-TAD [1, 5]: HIGH
inhibition of the AR-GAL4-DBD fusion protein ([1]; result in words, versus c-Jun or CREB TAD fusions): selectively inhibits
JUN-TAD (c-Jun TAD): LOW
CREB-TAD (CREB TAD): LOW
tumor growth of LNCaP-AR model in castrated nude mice ([2]; oral gavage once per day, five days per week (Mon-Fri), hydrochloride): inhibits growth
signs of toxicity in mice ([2]; xenograft study, oral gavage Mon-Fri): some mice exhibited signs of toxicity
full length AR and AR-V7 expression [3]: reduces both full length AR and AR-V7 expression
expression of TMPRSS and NDRG ([3]; 22Rv1 and CWR22 cells, 24 hours): reduces expression of TMPRSS and NDRG in a dose-dependent fashion
MTT AR-Pos [4, 5]: HIGH
growth of AR expressing prostate cancer cells ([4]; result in words): inhibits the growth
